Some results are limits rather than exact numbers.

T1 sequence (Q01718 whole entry): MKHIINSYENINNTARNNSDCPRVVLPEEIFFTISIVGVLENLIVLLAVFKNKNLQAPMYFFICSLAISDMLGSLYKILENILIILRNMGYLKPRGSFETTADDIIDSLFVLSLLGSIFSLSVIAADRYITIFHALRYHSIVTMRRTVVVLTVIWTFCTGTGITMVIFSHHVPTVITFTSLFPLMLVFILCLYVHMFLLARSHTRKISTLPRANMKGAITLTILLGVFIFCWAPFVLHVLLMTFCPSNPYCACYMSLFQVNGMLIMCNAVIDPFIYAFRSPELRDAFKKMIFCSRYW
T1 sequence (Q8TCY5 whole entry partner): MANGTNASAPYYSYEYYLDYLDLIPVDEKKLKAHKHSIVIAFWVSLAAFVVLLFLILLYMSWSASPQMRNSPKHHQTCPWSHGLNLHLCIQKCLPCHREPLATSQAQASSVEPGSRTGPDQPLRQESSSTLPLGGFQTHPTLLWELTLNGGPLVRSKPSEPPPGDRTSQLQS

The experiment addresses T1, hMC2 receptor (crude hMC2R membranes from CRE-bla-CHO-K1 cells stably expressing hMC2 receptor and hMRAP accessory protein) (Homo sapiens, UniProt Q01718).
T1 construct: crude membrane fractions
The experiment in a line: hMC2 membrane binding assay ([125I]ACTH (1-39) Tyr23, SPA). The following applies: displacement of 0.2 nM [125I]ACTH (1-39) Tyr23 from hMC2R membranes, 1.5 hours at room temperature; read-out: MC2R binding potency. In a few lines:
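Ki values come from non-linear regression of SPA scintillation counts, with compounds displacing [125I]ACTH(1-39) Tyr23. Membranes come from CRE-bla-CHO-K1 cells stably expressing hMC2 receptor together with hMRAP. They are preincubated with WGA-coated PVT SPA beads in 50 mM HEPES pH 7.4 with 0.20% BSA, Mg2+, Ca2+ and protease inhibitors.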
With `COc1ccccc1-c1ccc(C2(C(=O)NC[C@@H]3CCN3C)CCN(c3ccc(C(F)(F)F)cc3C#N)CC2)cn1` [Compound 1-217, 1-[2-cyano-4-(trifluoromethyl)phenyl]-4-[6-(2-methoxyphenyl)pyridine-3-yl]-N-{[(2S)-1-methylazetidin-2-yl]methyl}piperidine-4-carboxamide], the Ki was less than 0.01 µM.
For `COc1ccccc1-c1ccc(C2(C(=O)NC[C@@H]3C[C@H](F)CN3C)CCN(c3ccc(C(F)(F)F)cc3C#N)CC2)cn1` [Compound 1-249, 1-[2-cyano-4-(trifluoromethyl)phenyl]-N-{[(2S,4S)-4-fluoro-1-methylpyrrolidin-2-yl]methyl}-4-[6-(2-methoxyphenyl)pyridin-3-yl]piperidine-4-carboxamide], the Ki is less than 0.01 µM.
In the case of `Cc1ccccc1-c1ccc(C2(C(=O)N[C@@H]3CCN(C)C3)CCN(c3ccc(C(F)(F)F)cc3C#N)CC2)cn1` [Compound 1-66, 1-[2-cyano-4-(trifluoromethyl)phenyl]-4-[6-(2-methylphenyl)pyridin-3-yl]-N-[(3R)-1-methylpyrrolidin-3-yl]piperidine-4-carboxamide], the Ki is less than 0.01 µM.
As to `CNCCNC(=O)C1(c2cnc(-c3ccccc3OC)c(F)c2)CCN(c2ccc(C(F)(F)F)cc2C#N)CC1` [Compound 1-196, 1-[2-cyano-4-(trifluoromethyl)phenyl]-4-[5-fluoro-6-(2-methoxyphenyl)pyridin-3-yl]-N-[2-(methylamino)ethyl]piperidine-4-carboxamide], the Ki was less than 0.01 µM.
As for `COc1ccccc1-c1ccc(C2(C(=O)N[C@H]3CCN(C)C3)CCN(c3ccc(C(F)(F)F)cc3C#N)CC2)cn1` [Compound 1-166, 1-[2-cyano-4-(trifluoromethyl)phenyl]-4-[6-(2-methoxyphenyl)pyridin-3-yl]-N-[(3S)-1-methylpyrrolidin-3-yl]piperidine-4-carboxamide], the Ki is less than 0.01 µM.
As for `COc1ncccc1-c1ccc(C2(NC(=O)C3CN(C)C3)CCN(c3ccc(C(F)(F)F)cc3C#N)CC2)cn1` [Compound 2-40, N-{1-[2-cyano-4-(trifluoromethyl)phenyl]-4-{2′-methoxy-[2,3′-bipyridin]-5-yl}piperidin-4-yl}-1-methylazetidine-3-carboxamide], the Ki was less than 0.01 µM.
The figure for `COc1ccccc1-c1ccc(C2(C(=O)N[C@H]3C[C@H]4CC[C@@H]3N4C)CCN(c3ccc(C(F)(F)F)cc3C#N)CC2)cn1` (racemic) [Compound 1-252, rac-1-[2-cyano-4-(trifluoromethyl)phenyl]-4-[6-(2-methoxyphenyl)pyridin-3-yl]-N-[(1S,2S,4R)-7-methyl-7-azabicyclo[2.2.1]heptan-2-yl]piperidine-4-carboxamide] is 0.01 to 0.1 µM; for `Cn1cccc1-c1ccc(C2(C(=O)N[C@@H]3C[C@H]3N)CCN(c3ccc(C(F)(F)F)cc3C#N)CC2)cn1` (racemic) [Compound 1-259, rac-N-[(1R,2R)-2-aminocyclopropyl]-1-[2-cyano-4-(trifluoromethyl)phenyl]-4-[6-(1-methyl-1H-pyrrol-2-yl)pyridin-3-yl]piperidine-4-carboxamide] it is 0.01 to 0.1 µM.
Regarding `CN1CC[C@H](NC(=O)C2(c3ccc(-c4cccn4C)nc3)CCN(c3ccc(C(F)(F)F)cc3C#N)CC2)C1` [Compound 1-100, 1-[2-cyano-4-(trifluoromethyl)phenyl]-4-[6-(1-methyl-1H-pyrrol-2-yl)pyridin-3-yl]-N-[(3S)-1-methylpyrrolidin-3-yl]piperidine-4-carboxamide], the Ki is less than 0.01 µM.
As for `CCOc1ncccc1-c1ccc(C2(C(=O)NCCNC)CCN(c3ccc(C(F)(F)F)cc3F)CC2)cn1` [Compound 1-223, 4-{2′-ethoxy-[2,3′-bipyridin]-5-yl}-1-[2-fluoro-4-(trifluoromethyl)phenyl]-N-[2-(methylamino)ethyl]piperidine-4-carboxamide], the Ki was less than 0.01 µM.
With `CNC[C@H](C)NC(=O)C1(c2ccc(-c3cccnc3OC)nc2)CCN(c2ccc(C(F)(F)F)cc2Cl)CC1` [Compound 1-307, 1-[2-chloro-4-(trifluoromethyl)phenyl]-4-{2′-methoxy-[2,3′-bipyridin]-5-yl}-N-[(2S)-1-(methylamino)propan-2-yl]piperidine-4-carboxamide], the Ki is less than 0.01 µM.
Take `CCOc1ncccc1-c1ccc(C2(C(=O)NCCCN)CCN(c3ccc(C(F)(F)F)cc3C#N)CC2)cc1` [Compound 1-5, N-(3-aminopropyl)-1-[2-cyano-4-(trifluoromethyl)phenyl]-4-[4-(2-ethoxypyridin-3-yl)phenyl]piperidine-4-carboxamide]: the Ki was 0.01 to 0.1 µM.
As for `CCOc1ncccc1-c1ccc(C2(C(=O)NC[C@H](N)CO)CCN(c3ccc(C(F)(F)F)cc3C#N)CC2)cn1` [Compound 1-28, N-[(2S)-2-amino-3-hydroxypropyl]-1-[2-cyano-4-(trifluoromethyl)phenyl]-4-{2′-ethoxy-[2,3′-bipyridin]-5-yl}piperidine-4-carboxamide], the Ki was less than 0.01 µM.
Regarding `C[C@H](CN(C)C)NC(=O)C1(c2ccc(-c3cccn3C)nc2)CCN(c2ccc(C(F)(F)F)cc2C#N)CC1` [Compound 1-260, 1-[2-cyano-4-(trifluoromethyl)phenyl]-N-[(2R)-1-(dimethylamino)propan-2-yl]-4-[6-(1-methyl-1H-pyrrol-2-yl)pyridin-3-yl]piperidine-4-carboxamide], the Ki is less than 0.01 µM.
To `CCOc1ccccc1-c1ncc(C2(C(=O)N[C@H]3CCN(C)C3)CCN(c3ccc(C(F)(F)F)cc3Cl)CC2)cc1F` [Compound 1-202, 1-[2-chloro-4-(trifluoromethyl)phenyl]-4-[6-(2-ethoxyphenyl)-5-fluoropyridin-3-yl]-N-[(3S)-1-methylpyrrolidin-3-yl]piperidine-4-carboxamide] belongs less than 0.01 µM; to `CCOc1ncccc1-c1ccc(C2(C(=O)N[C@H]3CCN(C)C3)CCN(c3ccc(C(F)(F)F)cc3)CC2)cn1` [Compound 1-33, 4-{2′-ethoxy-[2,3′-bipyridin]-5-yl}-N-[(3S)-1-methylpyrrolidin-3-yl]-1-[4-(trifluoromethyl)phenyl]piperidine-4-carboxamide], less than 0.01 µM.
With `COc1ncccc1-c1ncc(C2(C(=O)N[C@H]3CCN(C)C3)CCN(c3ccc(C(F)(F)F)cc3C#N)CC2)cc1F` [Compound 1-132, 1-[2-cyano-4-(trifluoromethyl)phenyl]-4-{3-fluoro-2′-methoxy-[2,3′-bipyridin]-5-yl}-N-[(3S)-1-methylpyrrolidin-3-yl]piperidine-4-carboxamide], the Ki was less than 0.01 µM.
Take `CN1CC[C@@H](NC(=O)C2(c3ccc(-c4ccccc4F)nc3)CCN(c3ccc(C(F)(F)F)cc3C#N)CC2)C1` [Compound 1-74, 1-[2-cyano-4-(trifluoromethyl)phenyl]-4-[6-(2-fluorophenyl)pyridin-3-yl]-N-[(3R)-1-methylpyrrolidin-3-yl]piperidine-4-carboxamide]: the Ki is less than 0.01 µM.
As to `Cn1cccc1-c1ccc(C2(C(=O)N[C@H]3C[C@H](N)C3)CCN(c3ccc(C(F)(F)F)cc3C#N)CC2)cn1` [Compound 1-234, 1-[2-cyano-4-(trifluoromethyl)phenyl]-4-[6-(1-methyl-1H-pyrrol-2-yl)pyridin-3-yl]-N-[(1R,3R)-3-aminocyclobutyl]piperidine-4-carboxamide], the Ki lay in the range of 0.01 to 0.1 µM.

Source of the values: patent US12492181B2, “Gem-disubstituted piperidine melanocortin subtype-2 receptor (MC2R) antagonists and uses thereof” (Crinetics Pharmaceuticals, Inc., priority 2019, dated 2025).
